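Cells were grown in 96-well plates and exposed to each compound for 48 hours at five concentrations; endpoints were interpolated linearly between bracketing concentrations, or set to the highest concentration if not reached. GI50 = concentration required for 50% inhibition of growth. The concentration for full growth arrest is given as TGI.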
Legend:
Assay in all cases: inhibition of tumour cell growth, NCI panel, 48 h
HOP-92 NSCLC = tested on: HOP-92 NSCLC
OVCAR-8 ovarian = tested on: OVCAR-8 ovarian
IGROV1 ovarian = tested on: IGROV1 ovarian
A549 NSCLC = tested on: A549 NSCLC
SK-MEL-2 melanoma = tested on: SK-MEL-2 melanoma
SN12C renal = tested on: SN12C renal
SW-620 colon = tested on: SW-620 colon
SK-OV-3 ovarian = tested on: SK-OV-3 ovarian
SNB-75 CNS = tested on: SNB-75 CNS
DU-145 prostate = tested on: DU-145 prostate

SMILES	TGI (HOP-92 NSCLC) [µM]	TGI (OVCAR-8 ovarian) [µM]	TGI (IGROV1 ovarian) [µM]	TGI (A549 NSCLC) [µM]	TGI (SK-MEL-2 melanoma) [µM]	TGI (SN12C renal) [µM]	TGI (SW-620 colon) [µM]	TGI (SK-OV-3 ovarian) [µM]	TGI (SNB-75 CNS) [µM]	GI50 (HOP-92 NSCLC) [µM]	GI50 (DU-145 prostate) [µM]	TGI (DU-145 prostate) [µM]	GI50 (OVCAR-8 ovarian) [µM]	GI50 (IGROV1 ovarian) [µM]	GI50 (A549 NSCLC) [µM]	GI50 (SK-MEL-2 melanoma) [µM]	GI50 (SN12C renal) [µM]	GI50 (SW-620 colon) [µM]	GI50 (SK-OV-3 ovarian) [µM]
C/C=C/C1(NS(=O)(=O)c2ccc(C)cc2)CCC(C(C)(C)C)CC1 (stereo not drawn)	41.6	> 100	77.2	> 100	34.8	34.7	67.3	81.5	> 100										
NS(=O)(=O)c1ccc(-n2nc(-c3ccc(Cl)cc3)cc2C2=CC(=O)C=CC2=O)cc1	> 100	73.7	> 100	> 100	> 100	36.5	48.3			28	23.7	87.5	24.2	39.6	30	58	19.7	19.8	
CC(C)(C)c1cc(C(O)(C(F)(F)F)C(F)(F)F)c2c(c1)C(C(F)(F)F)(C(F)(F)F)OC(c1ccccc1)(C(C)(C)C)N2 (stereo not drawn)		26.2	16.7	> 100	19.7	16.6	16.7	7.39	15.1										
O=Cc1cc(O)c(O)c(O)c1-c1c(C=O)cc(O)c(O)c1O		> 100	> 100	> 100	> 100	> 100	> 100	> 100	> 100										
CC(=O)OCCOCNC(=S)N/N=C(\C)c1ccco1		> 100	> 100	> 100	> 100	> 100	> 100	> 100	> 100										
CCN(CCCl)CCNc1c2ccccc2nc2ccc(OC)cc12	2.43	2.26	2.86	7.11	2.52	2.85	2.04	3.81	3.27										
O=C(Nc1ccccc1Cl)c1ccc(NC2=C(Cl)C(=O)N(Cc3ccccc3)C2=O)cc1		36.9	> 100	> 100		73.7	58.1	> 100			> 100	> 100	18.7	46.4	60.4		27.8	25.4	> 100
O=S1(=O)CSc2ccc3ccccc3c2-c2c1ccc1ccccc21	> 100	> 100	> 100	> 100		> 100	> 100		> 100										
O=C(/C=C/c1ccccc1F)C(c1ccccc1)c1ccccc1	8.72		30.7	17.4	6.15	15.2	11.5	8.47	19.2										
COc1ccccc1NC(=O)C1=C(C)NC(C)=C(C(=O)Nc2ccccc2OC)C1c1ccc(C(C)C)cc1	> 100	> 100	> 100	> 100	> 100	> 100	> 100	> 100	> 100										
C[C@H](NC(=O)OC1C2C=CC(O)C1CC2)c1ccccc1 (stereo partly drawn)		> 100	> 100	> 100	> 100	> 100		> 100	> 100										
Cc1ccc(S(=O)(=O)N2CCCCC2CCO)cc1 (stereo not drawn)	> 100	> 100	> 100	> 100	> 100	> 100	> 100	> 100	> 100										
Cn1cc(C(=O)C2CCCCC2)ccc1=O	> 100	> 100	> 100	> 100	> 100	> 100	> 100	> 100	> 100										
Cc1cc(Cl)ccc1N1C(=O)C(=O)C(c2nc3ccccc3s2)C(=O)C1=O	> 100	> 100	> 100	> 100	> 100	> 100	> 100	> 100	> 100										
CCCNc1nc(-c2ccc(OC)cc2)nc2ccccc12	29.3	95	> 100	49.6	> 100	46.1		53		9.06	14.3	32.2	25	24	11.1	35.2	20.2		18.9
CC(=O)O[C@H]1CC[C@@]2(C)C(=CC[C@@H]3C2CC[C@]2(C)Nc4oncc4CC32)C1 (stereo partly drawn)		> 100	> 100	83.6	> 100		> 100	> 100	> 100										

From PubChem BioAssay (NCI)
